In patent US8541601B2, “Piperazine dithioctate and pharmaceutical composition comprising the same” (Celltrion Chemical Research Institute, priority 2009, dated 2013):

How the values were obtained:
[1] = assay type: physicochemical; conditions: for remaining rate of the active ingredient, Initial: 0 h; for remaining rate of the active ingredient, 3 days: 72 h; for remaining rate of the active ingredient, 7 days: 168 h; for remaining rate of the active ingredient, 14 days: 336 h; for remaining rate of the active ingredient, 28 days: 672 h
rats = conditions: rat, in vivo; cited from earlier work

remaining rate of the active ingredient, Initial [1]	remaining rate of the active ingredient, 3 days [1] [%]	remaining rate of the active ingredient, 7 days [1] [%]	remaining rate of the active ingredient, 14 days [1] [%]	remaining rate of the active ingredient, 28 days [1] [%]	Compound	LD50 (the lethal dose causing death in 50% of rats on oral administration) (rats) [mg/kg]
100.0	100	100	100	100	NC(CO)(CO)CO.O=C(O)CCCCC1CCSS1 (stereo not shown) [Tromethamine thioctate, Tromethamine Thioctate]	–
–	–	–	–	–	C1CNCCN1 [piperazine]	1900
100.0	100	100	100	100	O=C(O)CCCCC1CCSS1 (racemic) [Piperazine dithioctate, Piperazine Dithioctate]	–
100.0	99.8	99.6	98.9	97.8	O=C(O)CCCCC1CCSS1 (stereo not shown) [Thioctic acid]	–
